In PubChem BioAssay (NCI):
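Dose response: 5 concentrations. Exposure: 48 h. Format: 96-well plates. Endpoint: linear interpolation; highest concentration if not reached. GI50 is the concentration that inhibits growth by half. At the TGI there is no net growth.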

How the values were obtained:
Test in all cases: NCI-60 cell line screen, 48 h
COLO 205 colon = test system: COLO 205 colon
HCT-15 colon = test system: HCT-15 colon
MALME-3M melanoma = test system: MALME-3M melanoma
ACHN renal = test system: ACHN renal
BT-549 breast = test system: BT-549 breast
SF-268 CNS = test system: SF-268 CNS
HL-60(TB) leukemia = test system: HL-60(TB) leukemia
SW-620 colon = test system: SW-620 colon
NCI/ADR-RES ovarian = test system: NCI/ADR-RES ovarian
K-562 leukemia = test system: K-562 leukemia
NCI-H226 lung = test system: NCI-H226 lung
MDA-MB-435 = test system: MDA-MB-435
LOX IMVI melanoma = test system: LOX IMVI melanoma
OVCAR-5 ovarian = test system: OVCAR-5 ovarian
SK-MEL-28 melanoma = test system: SK-MEL-28 melanoma
SN12C renal = test system: SN12C renal
DU-145 prostate = test system: DU-145 prostate
IGROV1 ovarian = test system: IGROV1 ovarian
T-47D breast = test system: T-47D breast
HOP-92 NSCLC = test system: HOP-92 NSCLC
M14 melanoma = test system: M14 melanoma
NCI-H522 lung = test system: NCI-H522 lung
OVCAR-3 ovarian = test system: OVCAR-3 ovarian
SNB-75 CNS = test system: SNB-75 CNS
A549 NSCLC = test system: A549 NSCLC
SK-MEL-2 melanoma = test system: SK-MEL-2 melanoma
UACC-62 melanoma = test system: UACC-62 melanoma
SF-295 CNS = test system: SF-295 CNS
OVCAR-4 ovarian = test system: OVCAR-4 ovarian
EKVX NSCLC = test system: EKVX NSCLC
HS 578T breast = test system: HS 578T breast
TK-10 renal = test system: TK-10 renal
786-0 renal = test system: 786-0 renal
HCT-116 colon = test system: HCT-116 colon
SF-539 CNS = test system: SF-539 CNS
OVCAR-8 ovarian = test system: OVCAR-8 ovarian
A498 renal = test system: A498 renal
RPMI-8226 leukemia = test system: RPMI-8226 leukemia
U251 CNS = test system: U251 CNS
SNB-19 CNS = test system: SNB-19 CNS
PC-3 prostate = test system: PC-3 prostate
CAKI-1 renal = test system: CAKI-1 renal
SK-MEL-5 melanoma = test system: SK-MEL-5 melanoma
MDA-MB-231 breast = test system: MDA-MB-231 breast
SR leukemia = test system: SR leukemia
UACC-257 melanoma = test system: UACC-257 melanoma
HCC-2998 colon = test system: HCC-2998 colon
UO-31 renal = test system: UO-31 renal
MOLT-4 leukemia = test system: MOLT-4 leukemia
MCF7 breast = test system: MCF7 breast
KM12 colon = test system: KM12 colon
RXF 393 renal = test system: RXF 393 renal
MDA-N = test system: MDA-N
CCRF-CEM leukemia = test system: CCRF-CEM leukemia
NCI-H460 lung = test system: NCI-H460 lung

SMILES: O=C1c2cccnc2-c2nc(-c3ccc(Cl)cc3)cc3c2c1nc1ccccc13
- GI50 (COLO 205 colon): > 100 µM
- TGI (COLO 205 colon): > 100 µM
- GI50 (HCT-15 colon): 23.9 µM
- TGI (HCT-15 colon): > 100 µM
- GI50 (MALME-3M melanoma): 20.2 µM
- TGI (MALME-3M melanoma): 91.5 µM
- GI50 (ACHN renal): 15.9 µM
- TGI (ACHN renal): 33.7 µM
- GI50 (BT-549 breast): 18 µM
- TGI (BT-549 breast): 51.1 µM
- GI50 (SF-268 CNS): 71.2 µM
- TGI (SF-268 CNS): > 100 µM
- GI50 (HL-60(TB) leukemia): 37.6 µM
- TGI (HL-60(TB) leukemia): > 100 µM
- GI50 (SW-620 colon): 28.6 µM
- TGI (SW-620 colon): > 100 µM
- GI50 (NCI/ADR-RES ovarian): 55.2 µM
- TGI (NCI/ADR-RES ovarian): > 100 µM
- GI50 (K-562 leukemia): 38.7 µM
- TGI (K-562 leukemia): > 100 µM
- GI50 (NCI-H226 lung): 49.5 µM
- TGI (NCI-H226 lung): > 100 µM
- GI50 (MDA-MB-435): 22.5 µM
- TGI (MDA-MB-435): 86.4 µM
- GI50 (LOX IMVI melanoma): 35.7 µM
- TGI (LOX IMVI melanoma): > 100 µM
- GI50 (OVCAR-5 ovarian): > 100 µM
- TGI (OVCAR-5 ovarian): > 100 µM
- GI50 (SK-MEL-28 melanoma): 34.7 µM
- TGI (SK-MEL-28 melanoma): > 100 µM
- GI50 (SN12C renal): 24 µM
- TGI (SN12C renal): > 100 µM
- GI50 (DU-145 prostate): 75.4 µM
- TGI (DU-145 prostate): > 100 µM
- GI50 (IGROV1 ovarian): 32.3 µM
- TGI (IGROV1 ovarian): > 100 µM
- GI50 (T-47D breast): > 100 µM
- TGI (T-47D breast): > 100 µM
- GI50 (HOP-92 NSCLC): 22.9 µM
- TGI (HOP-92 NSCLC): 74.1 µM
- GI50 (M14 melanoma): 19.9 µM
- TGI (M14 melanoma): 58 µM
- GI50 (NCI-H522 lung): 21 µM
- TGI (NCI-H522 lung): > 100 µM
- GI50 (OVCAR-3 ovarian): 24 µM
- TGI (OVCAR-3 ovarian): 75 µM
- GI50 (SNB-75 CNS): 57.9 µM
- TGI (SNB-75 CNS): > 100 µM
- GI50 (A549 NSCLC): 35.6 µM
- TGI (A549 NSCLC): > 100 µM
- GI50 (SK-MEL-2 melanoma): 76.5 µM
- TGI (SK-MEL-2 melanoma): > 100 µM
- GI50 (UACC-62 melanoma): 76 µM
- TGI (UACC-62 melanoma): > 100 µM
- GI50 (SF-295 CNS): 22.9 µM
- TGI (SF-295 CNS): > 100 µM
- GI50 (OVCAR-4 ovarian): 43.6 µM
- TGI (OVCAR-4 ovarian): > 100 µM
- GI50 (EKVX NSCLC): > 100 µM
- TGI (EKVX NSCLC): > 100 µM
- GI50 (HS 578T breast): 29 µM
- TGI (HS 578T breast): > 100 µM
- GI50 (TK-10 renal): 24.6 µM
- TGI (TK-10 renal): > 100 µM
- GI50 (786-0 renal): 12.8 µM
- TGI (786-0 renal): 29.7 µM
- GI50 (HCT-116 colon): 28.4 µM
- TGI (HCT-116 colon): > 100 µM
- GI50 (SF-539 CNS): 59.8 µM
- TGI (SF-539 CNS): > 100 µM
- GI50 (OVCAR-8 ovarian): 98.4 µM
- TGI (OVCAR-8 ovarian): > 100 µM
- GI50 (A498 renal): 33.5 µM
- TGI (A498 renal): > 100 µM
- GI50 (RPMI-8226 leukemia): 56.5 µM
- TGI (RPMI-8226 leukemia): > 100 µM
- GI50 (U251 CNS): 9.24 µM
- TGI (U251 CNS): 37.1 µM
- GI50 (SNB-19 CNS): > 100 µM
- TGI (SNB-19 CNS): > 100 µM
- GI50 (PC-3 prostate): 47 µM
- TGI (PC-3 prostate): > 100 µM
- GI50 (CAKI-1 renal): 67.7 µM
- TGI (CAKI-1 renal): > 100 µM
- GI50 (SK-MEL-5 melanoma): 17.5 µM
- TGI (SK-MEL-5 melanoma): 80.8 µM
- GI50 (MDA-MB-231 breast): 44.1 µM
- TGI (MDA-MB-231 breast): > 100 µM
- GI50 (SR leukemia): 7.38 µM
- TGI (SR leukemia): > 100 µM
- GI50 (UACC-257 melanoma): 57.7 µM
- TGI (UACC-257 melanoma): > 100 µM
- GI50 (HCC-2998 colon): > 100 µM
- TGI (HCC-2998 colon): > 100 µM
- GI50 (UO-31 renal): 46.9 µM
- TGI (UO-31 renal): > 100 µM
- GI50 (MOLT-4 leukemia): 51.7 µM
- TGI (MOLT-4 leukemia): > 100 µM
- GI50 (MCF7 breast): 18.8 µM
- TGI (MCF7 breast): 75.4 µM
- GI50 (KM12 colon): 41 µM
- TGI (KM12 colon): > 100 µM
- GI50 (RXF 393 renal): 30.8 µM
- TGI (RXF 393 renal): > 100 µM
- GI50 (MDA-N): 40 µM
- TGI (MDA-N): > 100 µM
- GI50 (CCRF-CEM leukemia): > 100 µM
- TGI (CCRF-CEM leukemia): > 100 µM
- GI50 (NCI-H460 lung): 37.2 µM
- TGI (NCI-H460 lung): > 100 µM
